Positions of bridges follow the written chain, without caps; N, C: chain ends. Non-standard residues stand in square brackets, D forms with d. Residues, ends and D or L forms follow the SMILES beside them. R8 = C=CCCCCCC[C@@](C)(N)C(=O)O; S5 = C=CCCC[C@](C)(N)C(=O)O

The text below walks through data of article PMC10403075, “Short hydrocarbon stapled ApoC2-mimetic peptides activate lipoprotein lipase and lower plasma triglycerides in mice” (Frontiers in Cardiovascular Medicine, 2023).

The assay deals with T1, LPL from bovine milk (Bos taurus, UniProt P11151).
T1 construct: LPL from bovine milk (Sigma-Aldrich); purchased Sigma-Aldrich; host or cells: bovine milk (natural source)
T1 sequence (P11151 29-478): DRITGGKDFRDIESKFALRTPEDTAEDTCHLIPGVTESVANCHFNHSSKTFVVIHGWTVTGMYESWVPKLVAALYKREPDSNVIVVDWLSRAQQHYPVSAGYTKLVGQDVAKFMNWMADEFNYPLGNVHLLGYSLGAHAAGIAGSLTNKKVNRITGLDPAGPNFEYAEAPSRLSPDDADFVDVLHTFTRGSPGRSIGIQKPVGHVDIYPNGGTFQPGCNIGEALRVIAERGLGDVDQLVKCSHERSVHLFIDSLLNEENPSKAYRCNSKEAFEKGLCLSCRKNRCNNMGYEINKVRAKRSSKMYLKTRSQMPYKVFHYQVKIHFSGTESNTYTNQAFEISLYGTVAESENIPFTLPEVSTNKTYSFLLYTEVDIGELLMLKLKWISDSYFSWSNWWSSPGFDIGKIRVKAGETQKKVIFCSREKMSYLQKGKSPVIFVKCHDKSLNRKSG
Kind of assay: In vitro LPL activity assay (NEFA generation, ApoC2-deficient plasma substrate). It is filed as biochemical. The note with it: 0-2 µM peptide, ApoC2-deficient plasma substrate, NEFA read-out, triplicates; for EC50: 0.83 nM bovine milk LPL, 30 min on ice then 37°C 1 h, read-out: EC50 for stimulating lipolysis (LPL activation). The procedure: LPL activity was determined by measuring the generation of non-esterified fatty acids (NEFA). In a 96-well plate, 0–2 µM of an ApoC2 mimetic peptide, 0.83 nM of LPL from bovine milk (Sigma-Aldrich), ApoC2-deficient ethylenediaminetetraacetic acid (EDTA)-plasma (diluted with PBS to a final TG concentration of 0.67 mg/dl), 2 IU/ml heparin, 0.2% fatty acids free bovine serum albumin (BSA) (ICN Biomedicals), and PBS (Life Technologies) were combined in a final reaction volume of 50 μl. The reaction mixture was pre-incubated on ice for 30 min and incubated at 37°C for 1 h. NEFA were measured with a coupled enzyme reaction (Wako Diagnostics) in a Synergy H1 microplate reader (BioTek, USA).

Broadly, the EC50 is the concentration needed to bring the measured effect to its halfway point. Turning to `CC[C@H](C)[C@H](NC(=O)CNC(=O)[C@]1(C)CCCC=CCCCCCC[C@@](C)(NC(=O)[C@H](CO)NC(=O)[C@H](CCCCN)NC(=O)[C@H](CO)NC(=O)[C@H](Cc2ccc(O)cc2)NC(=O)[C@H](CC(C)C)NC(=O)[C@H](CC(=O)O)NC(=O)[C@H](CCCNC(=N)N)NC(=O)[C@H](CC(C)C)NC(=O)[C@H](CCCCN)NC(=O)[C@@H](N)CCC(=O)O)C(=O)N[C@@H](C)C(=O)N[C@@H](C)C(=O)N[C@@H](CCSC)C(=O)N[C@@H](CO)C(=O)N[C@@H]([C@@H](C)O)C(=O)N[C@@H](Cc2ccc(O)cc2)C(=O)N1)C(=O)N[C@@H](Cc1ccccc1)C(=O)N[C@H](C(=O)N[C@@H](CC(=O)O)C(=O)N[C@@H](CCC(N)=O)C(=O)N[C@H](C(=O)N[C@@H](CC(C)C)C(=O)N[C@@H](CO)C(=O)N[C@H](C(=O)N[C@@H](CC(C)C)C(=O)N[C@@H](CCCCN)C(=O)NCC(=O)N[C@@H](CCC(=O)O)C(=O)N[C@@H](CCC(=O)O)C(=O)O)C(C)C)C(C)C)[C@@H](C)O` [P3] (H-EKLRDLYSKS[R8]AAMSTY[S5]GIFTDQVLSVLKGEE-OH; staple 11-18), the EC50 lay in the range of 25 to 33 nM. The same measure, in the same setting: the result for `CC[C@H](C)[C@@H]1NC(=O)CNC(=O)[C@H]([C@@H](C)O)NC(=O)[C@H](Cc2ccc(O)cc2)NC(=O)[C@H]([C@@H](C)O)NC(=O)[C@](C)(NC(=O)[C@H](CCSC)NC(=O)[C@H](C)NC(=O)[C@H](C)NC(=O)[C@@H](NC(=O)[C@H](CO)NC(=O)[C@H](CCCCN)NC(=O)[C@H](CO)NC(=O)[C@H](Cc2ccc(O)cc2)NC(=O)[C@H](CC(C)C)NC(=O)[C@H](CC(=O)O)NC(=O)[C@H](CCCNC(=N)N)NC(=O)[C@H](CC(C)C)NC(=O)[C@H](CCCCN)NC(=O)[C@@H](N)CCC(=O)O)[C@@H](C)O)CCCCCCC=CCCC[C@@](C)(C(=O)N[C@@H](CC(=O)O)C(=O)N[C@@H](CCC(N)=O)C(=O)N[C@H](C(=O)N[C@@H](CC(C)C)C(=O)N[C@@H](CO)C(=O)N[C@H](C(=O)N[C@@H](CC(C)C)C(=O)N[C@@H](CCCCN)C(=O)NCC(=O)N[C@@H](CCC(=O)O)C(=O)N[C@@H](CCC(=O)O)C(=O)O)C(C)C)C(C)C)NC(=O)[C@H](Cc2ccccc2)NC1=O` [P5] (H-EKLRDLYSKSTAAM[R8]TYTGIF[S5]DQVLSVLKGEE-OH; staple 15-22) reads 25 to 33 nM.

For the compound `CC[C@H](C)[C@@H]1NC(=O)CNC(=O)[C@H]([C@@H](C)O)NC(=O)[C@H](Cc2ccc(O)cc2)NC(=O)[C@H]([C@@H](C)O)NC(=O)[C@](C)(NC(=O)[C@H](CCSC)NC(=O)[C@H](C)N)CCCCCCC=CCCC[C@@](C)(C(=O)N[C@@H](CC(=O)O)C(=O)N[C@@H](CCC(N)=O)C(=O)N[C@H](C(=O)N[C@@H](CC(C)C)C(=O)N[C@@H](CO)C(=O)N[C@H](C(=O)N[C@@H](CC(C)C)C(=O)N[C@@H](CCCCN)C(=O)NCC(=O)N[C@@H](CCC(=O)O)C(=O)N[C@@H](CCC(=O)O)C(=O)O)C(C)C)C(C)C)NC(=O)[C@H](Cc2ccccc2)NC1=O` [P6] (H-AM[R8]TYTGIF[S5]DQVLSVLKGEE-OH; staple 3-10 (inferred); N-terminus and C-terminus assumed), the “in vitro LPL activation, dose response (result in words)” value (bovine milk LPL, 37°C 1 h) is recorded as “just as active”.
